# Laboratory results reported in PMC6941110, “Mutation of Aspartate 238 in FAD Synthase Isoform 6 Increases the Specific Activity by Weakening the FAD Binding” (International Journal of Molecular Sciences, 2019).
# Read-outs that look alike come from different tables or passages of the source.
# Key:
# [1] = target: T1, hFADS6 (human FAD synthase isoform 6) (Homo sapiens, UniProt Q8NFF5, D505A); assay: stopped-flow flavin fluorescence, koff/kon; assay type: binding
# T1 construct: gene FLAD1; 320-residue isoform 6, FADSy domain only, lacks N-terminal FADHy domain; monomer
# Source text: stopped-flow flavin fluorescence, koff/kon on hFADS6 (human FAD synthase isoform 6) | obtained values are again indicative of the mutant binding FAD slower and weaker than the WT
# [2] = target: T2, hFADS6 (human FAD synthase isoform 6) (Homo sapiens, UniProt Q8NFF5); assay: stopped-flow flavin fluorescence, koff/kon; assay type: binding
# T2 construct: gene FLAD1; 320-residue isoform 6, FADSy domain only, lacks N-terminal FADHy domain; monomer
# [3] = target: T2, hFADS6 (human FAD synthase isoform 6); assay: biochemical; parameters: Stopped-flow flavin fluorescence, FAD binding with 250 uM PPi; kon/koff from kobs1 versus flavin concentration, 25 °C, pH 7.0; conditions: with 250 uM PPi
# Procedure: (§1) Pre-steady-state kinetic experiments were performed using stopped-flow spectroscopy on an Applied Photophysics SX17.MV spectrophotometer using the Pro-Data SX software (Applied Photophysics Ltd. Leatherhead, Surrey, UK). The fluorescence of flavins was measured in a continuous assay with an excitation wavelength of 445 nm, while the emission was recovered using a >530 nm cut-off filter and the [compound left out] was set to 350 V. Then, 100 nM hFADS6 samples were mixed with samples that contained increasing concentrations of FMN or FAD (which varied in the range 0.025–1 μM), in the absence and in the presence of saturating concentrations of their respective co-substrates ATP or PPi (250 µM). All the indicated concentrations are final ones in the stopped-flow observation cell. Measurements were carried out at 25 °C in 50 mM HEPES/NaOH, 10 mM MgCl2, pH 7.0, 5 mM β-mercaptoethanol. At least three reproducible kinetic traces of changes in fluorescence were recorded for each condition and fitted to exponential equations (usually one or two exponentials were used) (2) y=∑Aie^−kobs,it where Ai and kobs,i represent the amplitude and the observed rate constant, respectively, for each of the processes (i) that contribute to the overall time-dependent fluorescence change for each experimental condition. […] When similarly evaluating the reverse reaction, kinetic traces for both WT and the D238A mutant show an initial fluorescence exponential decay of small amplitude that is followed by a linear increase of the signal (Figure 8b). We again deduce the kinetics for binding of FAD from the exponential decay, while rates for the subsequent linear fluorescence increase relate well to steady-state kinetic parameters for the transformation of FAD into FMN. Although the small amplitudes for FAD binding make it difficult to accurately determine kobs values, both parameters show a dependence on the substrate concentration (Supplementary Figure S3a,b). […] Normalized kinetic traces for the flavin fluorescence evolution upon mixing the protein with substrates for the (a) forward (ATP + FMN) and (b) reverse (PPi + FAD) reactions. Traces for WT and D238A hFADS are shown in colored grey and red scales as a function of the flavin given concentrations. Normalized signals regarding the fluorescence of the forward reaction at maximum FMN concentration are shown. Kinetic traces were obtained at 25 °C in mixtures containing 100 nM of protein and 250 µM of either ATP (a) or PPi (b) in 50 mM HEPES/NaOH, 10 mM MgCl2, pH 7.0, 5 mM β-mercaptoethanol. All concentrations are final after mixing.
# [4] = target: T1, hFADS6 (human FAD synthase isoform 6); assay: biochemical; parameters: Stopped-flow flavin fluorescence, FAD binding with 250 uM PPi; kon/koff from kobs1 versus flavin concentration, 25 °C, pH 7.0; conditions: error at least 30%, with 250 uM PPi
# Procedure: as §1
# [5] = target: T2, hFADS6 (human FAD synthase isoform 6); assay: biochemical; parameters: Stopped-flow flavin fluorescence, FMN binding with 250 uM ATP; kon/koff from kobs1 versus flavin concentration, 25 °C, pH 7.0; conditions: with 250 uM ATP
# Procedure: (§2) Pre-steady-state kinetic experiments were performed using stopped-flow spectroscopy on an Applied Photophysics SX17.MV spectrophotometer using the Pro-Data SX software (Applied Photophysics Ltd. Leatherhead, Surrey, UK). The fluorescence of flavins was measured in a continuous assay with an excitation wavelength of 445 nm, while the emission was recovered using a >530 nm cut-off filter and the [compound left out] was set to 350 V. Then, 100 nM hFADS6 samples were mixed with samples that contained increasing concentrations of FMN or FAD (which varied in the range 0.025–1 μM), in the absence and in the presence of saturating concentrations of their respective co-substrates ATP or PPi (250 µM). All the indicated concentrations are final ones in the stopped-flow observation cell. Measurements were carried out at 25 °C in 50 mM HEPES/NaOH, 10 mM MgCl2, pH 7.0, 5 mM β-mercaptoethanol. At least three reproducible kinetic traces of changes in fluorescence were recorded for each condition and fitted to exponential equations (usually one or two exponentials were used) (2) y=∑Aie^−kobs,it where Ai and kobs,i represent the amplitude and the observed rate constant, respectively, for each of the processes (i) that contribute to the overall time-dependent fluorescence change for each experimental condition. […] In mixtures containing substrates of the forward reaction, ATP and FMN, the relevant decrease in the flavin fluorescence is indicative of internalization of the isoalloxazine or FMN transformation into FAD. These observations also agree with ATP binding to the protein prior to FMN in the bi-bi ordered kinetic mechanism reported for hFADSs. Nonetheless, features for this fluorescence decay also differ between WT and D238A hFADSs (Figure 8a). […] The first exponential decay has observed rate constants (kobs1) in the low seconds range which depend linearly on the FMN concentration, while its amplitude is concentration independent (Supplementary Figure S3a,b). kobs2 for the second exponential decay indicate a slower process nearly FMN concentration independent, with amplitude increasing with FMN concentration (Supplementary Figure S3a,b). […] The derived Kd^FMN, 0.094 ± 0.004 µM, agrees well with the above derived Km^FMN for WT hFADS6. […] Finally, the continuous and linear flavin fluorescence decay established after the exponential processes fits well with the settlement of the catalytic steady-state transformation of FMN into FAD, showing, in addition, rates in the ranges of Vmax and kcat. […] Nonetheless, fluorescence decay related to FMN transformation into FAD follows similar traits to the WT ones (Fig  Figure 8 Dissection of the kinetics of the substrates binding process from the catalytic reaction by stopped-flow spectrophotometry. Normalized kinetic traces for the flavin fluorescence evolution upon mixing the protein with substrates for the (a) forward (ATP + FMN) and (b) reverse (PPi + FAD) reactions. Traces for WT and D238A hFADS are shown in colored grey and red scales as a function of the flavin given concentrations. Normalized signals regarding the fluorescence of the forward reaction at maximum FMN concentration are shown. Kinetic traces were obtained at 25 °C in mixtures containing 100 nM of protein and 250 µM of either ATP (a) or PPi (b) in 50 mM HEPES/NaOH, 10 mM MgCl2, pH 7.0, 5 mM β-mercaptoethanol. All concentrations are final after mixing.
# [6] = target: T1, hFADS6 (human FAD synthase isoform 6); assay: biochemical; parameters: Stopped-flow flavin fluorescence, FMN binding with 250 uM ATP; kon/koff from kobs1 versus flavin concentration, 25 °C, pH 7.0; conditions: error at least 30%, with 250 uM ATP
# Procedure: as §2
# [7] = target: T1, hFADS6 (human FAD synthase isoform 6); assay: inhibition of FADS activity; assay type: biochemical; conditions: inhibitor
# T1 sequence (Q8NFF5 268-587 D505A): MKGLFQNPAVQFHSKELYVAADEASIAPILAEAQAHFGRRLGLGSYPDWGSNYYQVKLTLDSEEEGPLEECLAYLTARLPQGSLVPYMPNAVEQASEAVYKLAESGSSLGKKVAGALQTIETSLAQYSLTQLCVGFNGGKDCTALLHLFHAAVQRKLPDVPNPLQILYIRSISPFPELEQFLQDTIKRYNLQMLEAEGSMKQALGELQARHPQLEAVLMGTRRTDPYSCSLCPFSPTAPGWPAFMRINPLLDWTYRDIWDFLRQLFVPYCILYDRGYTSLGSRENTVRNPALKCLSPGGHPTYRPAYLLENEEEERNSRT
# T2 sequence (Q8NFF5 268-587): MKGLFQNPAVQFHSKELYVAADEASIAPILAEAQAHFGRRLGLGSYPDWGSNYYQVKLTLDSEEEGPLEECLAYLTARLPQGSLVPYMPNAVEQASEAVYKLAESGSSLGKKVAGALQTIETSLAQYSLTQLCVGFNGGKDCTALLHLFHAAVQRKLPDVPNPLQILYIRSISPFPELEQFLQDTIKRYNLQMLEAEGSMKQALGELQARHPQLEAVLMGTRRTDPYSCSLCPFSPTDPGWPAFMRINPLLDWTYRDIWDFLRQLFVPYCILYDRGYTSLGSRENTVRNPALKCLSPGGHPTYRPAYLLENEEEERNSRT
smiles,measurement,setting,value
Cc1cc2nc3c(=O)[nH]c(=O)nc-3n(C[C@H](O)[C@H](O)[C@H](O)COP(=O)(O)OP(=O)(O)OC[C@H]3O[C@@H](n4cnc5c(N)ncnc54)[C@H](O)[C@@H]3O)c2cc1C [FAD],Kd,[1],> 300 nM
same,Kd,[2]; read-out: Kd,180 ± 40 nM
same,koff,[3]; read-out: koff (FAD binding),0.81 ± 0.05 s⁻¹
same,kon,[3]; read-out: kon (FAD binding),4.5e+06 ± 600000 M⁻¹ s⁻¹
same,koff,[4]; read-out: koff (FAD binding),0.35 s⁻¹
same,kon,[4]; read-out: kon (FAD binding),1.5e+06 M⁻¹ s⁻¹
Cc1cc2nc3c(=O)[nH]c(=O)nc-3n(C[C@H](O)[C@H](O)[C@H](O)COP(=O)(O)O)c2cc1C [FMN],Kd,[2]; read-out: Kd^FMN,94 ± 4 nM
same,koff,[5]; read-out: koff (FMN binding),0.32 ± 0.01 s⁻¹
same,kon,[5]; read-out: kon (FMN binding),3.4e+06 ± 100000 M⁻¹ s⁻¹
same,Kd,"[6]; koff/kon, read-out: Kd FMN",> 180 nM
same,koff,[6]; read-out: koff (FMN binding),0.09 s⁻¹
same,kon,[6]; read-out: kon (FMN binding),550000 M⁻¹ s⁻¹
Nc1nc2c(ncn2[C@@H]2O[C@H](COP(=O)(O)OP(=O)(O)OP(=O)(O)O)[C@@H](O)[C@H]2O)c(=O)[nH]1 [GTP],inhibition of FADS activity,[7],The D238A-hFADS6 was inhibited by GTP and by NADH
NC(=O)C1=CN([C@@H]2O[C@H](COP(=O)(O)OP(=O)(O)OC[C@H]3O[C@@H](n4cnc5c(N)ncnc54)[C@H](O)[C@@H]3O)[C@@H](O)[C@H]2O)C=CC1 [NADH],inhibition of FADS activity,[7],The D238A-hFADS6 was inhibited by GTP and by NADH
